How the values were obtained:
Assay type in all cases: cell-based
[1] = tested on: DSPP gene; assay: DSPP mRNA level by real-time PCR in human dental pulp cells; details: peptide 10 ug/ml, compared to untreated control
Description: Human pulp tissue cells were isolated from wisdom teeth of 10 adults (18-22 years old) at Seoul National University Dental Hospital. Specifically, all experiments were performed with the patient's consent after approval from the hospital's Institutional Review Board, and wisdom teeth are cut according to a method of Jung H S et al (J Mol Histol. (2011)), exposing the pulp and isolating the pulp with forceps. The isolated pulp was minced on both sides, placed in a 60 mm dish, covered with a cover slip, and then cultured in Dulbecco's Modified Eagle medium. It is known that human dental pulp cells can differentiate into odontoblasts, osteoblasts, cementoblasts and periodontal ligament cells under various conditions (Tissue Eng Part A. 2014 April; 20(7-8): 1342-51).
(§1) Total RNA of human dental pulp cells and mesenchymal stem cells was isolated using a TRIzol reagent. cDNA was synthesized using 2 μg of total RNA, 1 μl of reverse transcriptase, and 0.5 μg of oligo (dT). The synthesized cDNA was used for real-time polymerase chain reaction. The real-time polymerase chain reaction was performed in ABI PRISM 7500 sequence detection system (Applied Biosystems) using SYBR GREEN PCR Master Mix (Takara, Japan). The real-time polymerase chain reaction was performed at 94° C., 1 min; 95° C., 15 sec-60° C., 34 sec was performed under the condition of repeating 40 cycles. An analysis of the results was evaluated using a comparative cycle threshold (CT) method, and primer base sequences are listed in Table 9.
The effect of each group of peptides on DSPP mRNA expression was confirmed by real-time PCR (Table 10).

[2] = tested on: BSP gene; assay: BSP mRNA level by real-time PCR in human-derived mesenchymal stem cells; details: compared to untreated control
Description: (§2) It was cultured at 37° C. in humid air containing 5% CO2 and used for the experiment. Human mesenchymal stem cells (hBMSCs) were purchased from Lonza (LONZA, Switzerland) and used. hBMSCs were cultured in a-MEM (Invitrogen) medium supplemented with 10% heat-inactivated bovine serum.
as §1
(§3) BSP and DMP1 genes are used as markers for differentiation of osteoblasts and cementoblasts, and are known as important genes for calcification of a bone and cementum. The effects of each group of peptides on BSP and DMP1 mRNA expression were confirmed by a real-time PCR (Tables 11 and 12).

[3] = tested on: DMP1 gene; assay: DMP1 mRNA level by real-time PCR in human-derived mesenchymal stem cells; details: compared to untreated control
Description: as §2, §1, §3

Sequence | mRNA level of DSPP gene, Average [1] | mRNA level of BSP gene, BSP gene expression, Average [2] | mRNA level of DMP1 gene, DMP1 gene expression, Average [3]
KYAKKKKNYK [SEQ ID NO: 33] | 1.813 fold | 2.092 fold | 7.709 fold
KYAKRKRSYK [SEQ ID NO: 48] | 2.516 fold | 1.773 fold | 6.757 fold
KYAKRRRSYK [SEQ ID NO: 47] | 1.620 fold | 2.063 fold | 7.107 fold
KYAKKRKSYK [SEQ ID NO: 43] | 1.620 fold | 2.011 fold | 6.791 fold
KYKAKRKSYK [SEQ ID NO: 11] | 3.362 fold | 2.226 fold | 8.795 fold
KYARKRRNYK [SEQ ID NO: 53] | 2.037 fold | 2.036 fold | 6.483 fold
KYARKKRSYK [SEQ ID NO: 58] | 1.811 fold | 1.811 fold | 5.999 fold
KYARRRRSYK [SEQ ID NO: 63] | 2.120 fold | 2.237 fold | 5.727 fold
KYARKRRSYK [SEQ ID NO: 61] | 1.525 fold | 1.832 fold | 5.787 fold
KYKARKRNYK [SEQ ID NO: 8] | 7.021 fold | 2.617 fold | 11.120 fold
KYAKRRKSYK [SEQ ID NO: 46] | 1.836 fold | 1.863 fold | 7.294 fold
KYRARKRSYK [SEQ ID NO: 32] | 1.861 fold | 1.893 fold | 8.107 fold
KYAKRKKSYK [SEQ ID NO: 44] | 2.121 fold | 1.699 fold | 7.663 fold
KYKARRKNYK [SEQ ID NO: 6] | 7.705 fold | 2.935 fold | 9.897 fold
KYARKKKSYK [SEQ ID NO: 57] | 1.886 fold | 1.679 fold | 6.059 fold
KYARRKRSYK [SEQ ID NO: 64] | 1.606 fold | 2.021 fold | 6.123 fold
KYAKKKRSYK [SEQ ID NO: 42] | 1.811 fold | 1.882 fold | 7.367 fold
KYKAKKRSYK [SEQ ID NO: 10] | 3.811 fold | 1.998 fold | 9.998 fold
KYAKKRRNYK [SEQ ID NO: 37] | 1.67 fold | 1.999 fold | 7.032 fold
KYARRRKSYK [SEQ ID NO: 62] | 1.836 fold | 1.769 fold | 5.333 fold

Sequence | mRNA level of DSPP gene, Average [1] | mRNA level of BSP gene, BSP gene expression, Average [2] | mRNA level of DMP1 gene, DMP1 gene expression, Average [3]
KYARRKKNYK [SEQ ID NO: 52] | 2.102 fold | 1.999 fold | 5.991 fold
KYRARRKSYK [SEQ ID NO: 30] | 1.836 fold | 2.222 fold | 8.683 fold
KYARKRKSYK [SEQ ID NO: 59] | 2.120 fold | 1.629 fold | 5.510 fold
KYRAKKKSYK [SEQ ID NO: 25] | 1.919 fold | 2.152 fold | 9.055 fold
KYKARRRNYK [SEQ ID NO: 7] | 8.215 fold | 2.548 fold | 10.236 fold
KYRAKRRNYK [SEQ ID NO: 21] | 2.167 fold | 1.995 fold | 9.100 fold
KYARRRKNYK [SEQ ID NO: 54] | 2.005 fold | 2.1 fold | 6.531 fold
KYKARRKSYK [SEQ ID NO: 14] | 2.136 fold | 1.729 fold | 9.407 fold
KYRAKRKNYK [SEQ ID NO: 19] | 1.772 fold | 2.537 fold | 8.999 fold
KYKARKKSYK [SEQ ID NO: 12] | 2.911 fold | 1.918 fold | 7.997 fold
KYKAKKKSYK [SEQ ID NO: 9] | 3.057 fold | 2.084 fold | 9.869 fold
KYARRRRNYK [SEQ ID NO: 55] | 1.921 fold | 1.773 fold | 6.111 fold
KYAKKKRNYK [SEQ ID NO: 34] | 2.361 fold | 2.136 fold | 7.031 fold
KYAKRKRNYK [SEQ ID NO: 40] | 2.121 fold | 2.102 fold | 7.635 fold
KYKAKRKNYK [SEQ ID NO: 3] | 8.572 fold | 2.715 fold | 11.271 fold
KYAKRKKNYK [SEQ ID NO: 36] | 1.702 fold | 2.207 fold | 6.999 fold
KYKAKRRNYK [SEQ ID NO: 5] | 6.67 fold | 2.77 fold | 11.001 fold
KYAKKKKSYK [SEQ ID NO: 41] | 1.897 fold | 1.762 fold | 7.727 fold
KYKARRRSYK [SEQ ID NO: 15] | 3.620 fold | 2.119 fold | 8.991 fold
